Assay results published in patent publication US20170226541A1, “METHOD OF IMPROVING SOLVENT TOLERANCE IN MICROBES” (Nanyang Technological University, priority 2014, published 2017).
“Also recorded” adds a separate entry of the source.

What was measured:
[1] = Single molecule tracking of DHPE-Atto647N in supported lipid bilayer; set-up: species or system E. coli; settings: for effect on MSD / bilayer stiffness (comparison of OPV COEs): no butanol, OPV COE final concentration 1 μM (FIG. 4)
Description: SLB formation, MIM treatment: A 3 mg/ml chloroform solution of total E. coli lipid extract (Avanti Polar Lipids, Alabaster, Ala.) was mixed with DHPE-Atto647N (Atto-Tec, Slegen, Germany) to 0.001% mol in a round bottom flask produce large unilamellar vesicles (LUVs). Chloroform was evaporated using a rotary evaporator for 2 hours at 65° C. The lipid film was resuspended in 10 mM HEPES and 150 mM NaCl, pH 7.4, vortexed for 10 min and sonicated in a bath sonicator until a clear solution was obtained. One hundred μl of such a prepared LUVs solution were deposited in a custom made plastic holder, glued to a coverslip, and incubated for 60 min at 65° C. Prior to use, coverslips were cleaned by 30 min sonication in 2% Hellmanex (Hellma Analytics, Millheim, Germany), followed by thorough rinsing with deionized (DI) water. Un-fused vesicles were removed by 10× washing with 400 μl of 10 mM Hepes, 150 mM NaCl, 3 mM EDTA, pH 7.4 buffer. Calculated volumes of COE1-5C, DSSN+, DSBN+ and 4F-DSBN+ (0.1 mM) were added directly to the chamber to final concentrations of 1 μM, mixed and allowed to equilibrate for 5 min prior to measurement.
Data acquisition: For total internal reflection microscopy (TIRF) imaging, a modified Nikon Eclipse TE2000U TIRF setup was used, equipped with a 100× 1.49NA objective (Nikon, Japan). Laser light from a 638 nm LED laser was passed through a 660LP dichromic mirror (Chroma Technology Corp, Bellows Falls, Vt.) and used for sample illumination under the TIR angle. Emitted light was filtered using a 738/75 […] and collected on a back-illuminated EMCCD camera chip (Andor iXON897, 512x512px, Andor Technology, USA). For each condition, 4 to 6 datasets of 4000 frames at 97 fps were collected from different regions of the membrane. Immobile particles and contaminants were bleached prior to measurement.
Data analysis: A Mosaic Particle Tracker ImageJ plugin was used to localize the centroid of single molecule signals and link them to trajectories. TrackArt software was used to filter spurious trajectories and extract mean square displacements and diffusion coefficients. […] The slowly-diffusing population occurs most likely due to marker interaction with the surface.

[2] = tested on: E. coli K12; experiment: Butanol challenge, microdilution growth test; assay type: cell-based, Escherichia coli K12 (ATTC 10798); settings: for protective effect on growth under butanol challenge: 0 to 3.5% (v/v) butanol, DSSN+ 5 μM
Description: Butanol challenge was assessed by using a microdilution format modified standard toxicity test based on the method described by Wiegand et al (I. Wiegand, K. Hilpert, R. E. W. Hancock, Nat. Protocols 2008, 3, 163-175). Cultures of E. coli K12 (ATTC 10798) grown in LB broth were harvested at late log phase and diluted to 1×10^6 cfu ml. One hundred μl of the suspension were inoculated into 96 well plates with each well containing an equal volume of LB broth and spiked with the following concentrations of 1-butanol: […] in a 96 well plate achieving a final inoculum density of 5×10^5 and a final butanol concentration of 0, 0.85, 1.75, and 3.5% (v/v). Tests were run in triplicate with and without COE1-5C (10 μM) and DSSN+ (5 μM) using the appropriate sterility and growth controls. Specific growth rates were expressed as an average of all replicates.

[3] = tested on: E. coli K12 cells; experiment: Modified microbial adhesion to hydrocarbon (MATH) test; assay type: cell-based, Escherichia coli K12
Description: To test for cell surface modifications brought about by COE1-5C that might affect hydrophobicity, E. coli K12 cells treated with COE1-5C (10 μM) were tested for their affinity for either the butanol or aqueous phase against an untreated control. The tendency of E. coli to partition into the butanol phase or remain in the aqueous phase was assessed optically by measuring the reduction in turbidity (OD600) of tubes containing a saturated mixture of butanol (1.5 ml) and buffer (18.5 ml). The tests were carried out with appropriate blanks and both positive and negative controls. MATH tests were carried out in triplicate and expressed as the quotient of the difference between the OD600 at the start and […] and the OD600 at the […].

[4] = tested on: E. coli K12; experiment: Membrane polarisation (DiSC3 fluorescence); assay type: cell-based, Escherichia coli K12; settings: 10 μM COE1-5C; 0, 1.75 or 3.5% (v/v) 1-butanol
Description: Cultures of E. coli K12 grown in LB broth were harvested at late log phase and diluted to 5×10^5 cfu ml. Cells were centrifuged at 5000×g for 5 min and washed in phosphate buffered saline (PBS). The process was repeated three times and the pellet finally resuspended in PBS. Two-hundred μl of the cell suspension were inoculated into 96 well plates, 2 μL of the depolarization detecting probe 3,3-diethylthiodicarbocyanine (DiSC3) iodide was added to the treatment wells and to half of these, 10 μM COE1-5C. The cells were allowed to incubate for around 30 min and the fluorescence intensity at 670 nm was measured after excitation at 620 nm until a stable base line was reached. Zero, 1.75, or 3.5% (v/v) 1-butanol was added to the test well and the increase in fluorescence intensity was taken at 1 min intervals (Ex=λ620, Em=Δ670) as a bottom reading with optimal gain to determine the degree of membrane polarization. Buffer, dye, and COE1-5C blanks were monitored and the data corrected accordingly.

[5] = tested on: E. coli K12; experiment: Toxicity tests (minimum inhibitory concentration); assay type: cell-based, Escherichia coli K12
From the text: Relative toxicities of DSSN+ and DSBN+ are positively correlated with the extent of mismatch between the length of the hydrophobic molecular backbone and bilayer thickness. Membrane insertion of the shorter, 3-ringed DSBN+ thinned the membrane more than the 4-ringed DSSN+, perturbing it to a greater extent, and was correspondingly more toxic. In this example, the objective is to mitigate the toxic effect of organic solvents on biological membranes. To avoid synergistic membrane disruption in systems containing both MIMs and solvents, MIMs that were the least likely to perturb membranes, that is, DSSN+×(which was previously shown to maintain the natural thickness of membranes) and COE1-5C, were selected. The insertion of COE1-5C, whose molecular length (≈5 nm) is greater than the thickness of the bilayer (≈4 nm), would be expected to initiate membrane perturbation because of hydrophobic mismatch. However, positive hydrophobic mismatch perturbs lipid bilayers less than instances of negative mismatch—where the length of the insertion molecules is shorter than the thickness of the bilayer. The experimental concentration of COE1-5C used in this study (10 μM) is much lower than its minimum inhibitory concentration (MIC). […] This is considerably greater than for DSSN+, DSBN+ and 4F-DSBN+, further supporting the hypothesis that membrane thinning is a potent toxicity determinant. […]

Structure (SMILES): C[N+](C)(C)CCCCCCN(CCCCCC[N+](C)(C)C)c1ccc(/C=C/c2ccc(/C=C/c3ccc(/C=C/c4ccc(N(CCCCCC[N+](C)(C)C)CCCCCC[N+](C)(C)C)cc4)cc3)cc2)cc1.[I-].[I-].[I-].[I-] [DSSN+, reference compound]
- effect on MSD / bilayer stiffness (comparison of OPV COEs) [1]: to a lesser degree than the five-ringed structure
- protective effect on growth under butanol challenge ([2]; COE1-5C 10 μM): no protective effect; also recorded: no growth of E. coli K12 was observed
- protective effect on growth under butanol challenge ([2]; COE1-5C 10 μM, listed as DSSN^+): do not

Structure (SMILES): C[N+](C)(C)CCCCCCN(CCCCCC[N+](C)(C)C)c1ccc(C=Cc2ccc(C=Cc3ccc(C=Cc4ccc(C=Cc5ccc(N(CCCCCC[N+](C)(C)C)CCCCCC[N+](C)(C)C)cc5)cc4)cc3)cc2)cc1.[I-].[I-].[I-].[I-] [COE1-5C]
- tendency of treated cells to partition into the butanol phase relative to untreated cells ([3]; 10 μM COE1-5C): less than half that of untreated cells
- MATH value ([3]; E. coli K12 treated with 10 μM COE1-5C, butanol/buffer partitioning, OD600): 0.17 (±0.027)
- membrane depolarization by butanol [4]: mitigated the depolarization efficiency of butanol
- reduction in MSD of membrane marker ([1]; 0% (v/v) butanol): 62%
- diffusion coefficients in model membranes versus control ([1]; 10 μM COE1-5C, 0.85, 1.75, 3.50% v/v butanol (FIG. 2)): much lower than in control systems
- reduction in MSD of membrane marker ([1]; 0.85% (v/v) butanol): 38%
- reduction in MSD of membrane marker ([1]; 1.75% (v/v) butanol): 22%
- reduction in MSD of membrane marker ([1]; 3.5% v/v butanol): 15%
- effect on MSD / bilayer stiffness (comparison of OPV COEs) [1]: increased bilayer stiffness to the greatest degree
- protective effect on growth under butanol challenge ([2]; COE1-5C 10 μM): increased the growth rate of E. coli K12 in all instances of butanol challenge; also recorded: mitigates the toxic effect of butanol
- growth rate of treated cells relative to untreated cells (fold) ([2]; 3.5% v/v butanol): threefold increase
- growth rate relative to a control ([2]; 3.5% v/v butanol): about 13%
- specific growth rate ([2]; 3.5% v/v butanol, COE1-5C 10 μM, listed as conjugated oligo-electrolyte): 0.095 h⁻¹
- growth rate of treated cells relative to untreated cells (fold) ([2]; 3.5% v/v butanol, listed as OPV COE): three times
- growth rate of treated cells relative to untreated cells (fold) ([2]; 3.5% v/v butanol, listed as conjugated oligo-electrolyte): 3
- minimum inhibitory concentration (MIC) [5]: 128 µM

Structure (SMILES): C[N+](C)(C)CCCCCCN(CCCCCC[N+](C)(C)C)c1ccc(/C=C/c2ccc(/C=C/c3ccc(N(CCCCCC[N+](C)(C)C)CCCCCC[N+](C)(C)C)cc3)cc2)cc1.[I-].[I-].[I-].[I-] [DSBN+, reference compound]
- effect on MSD / bilayer stiffness (comparison of OPV COEs) [1]: to a lesser degree than the five-ringed structure

Structure (SMILES): C[N+](C)(C)CCCCCCN(CCCCCC[N+](C)(C)C)c1ccc(/C=C/c2c(F)c(F)c(/C=C/c3ccc(N(CCCCCC[N+](C)(C)C)CCCCCC[N+](C)(C)C)cc3)c(F)c2F)cc1.[I-].[I-].[I-].[I-] [4F-DSBN+, reference compound]
- effect on MSD / bilayer stiffness (comparison of OPV COEs) [1]: stiffened the least amount
